Experimental data as given in patent US20240239861A1, “GLUCAGON-RECEPTOR SELECTIVE POLYPEPTIDES AND METHODS OF USE THEREOF” (i2O Therapeutics, Inc., priority 2016, published 2024).
Where two headings read alike, the source gives them in different places. *1 amine or outer side, *2 acyl side, *3 side chain or, on linkers, in order; H or OH if unused. Where a SMILES comes first, the peptide text is derived from it. Side-chain parts run from the residue outwards. [ ]: non-standard residue; d: D form. The star is where a group is joined. C18 diacid = O=C(O)CCCCCCCCCCCCCCCCC(=O)*; γGlu = O=C(O)[C@H](CCC(=O)[*:2])N[*:1]; AEEA = NCCOCCOCC(=O)O; Aib = CC(C)(N)C(=O)O

Experiments:
[1] = biological target: human GCGR (Homo sapiens, UniProt P47871); assay: Peptide-receptor mediated cAMP accumulation (LANCE Ultra cAMP) in CHO-K1 cells transfected with human GCGR; type: cell-based
[2] = biological target: human GLP-1R (Homo sapiens, UniProt P43220); assay: Peptide-receptor mediated cAMP accumulation (LANCE Ultra cAMP) in CHO-K1 cells transfected with human GLP-1R; type: cell-based
[3] = hGLP1 pEC50 (cAMP mean (n = 3): 11 point curve starting at 1 nM, Table 3)
[4] = read-out: GluR pEC50 (converted)
[5] = Table 7, GLP-1R, read-out: GLP-1R pEC50 (converted)

Chain of human GLP-1R (P43220 24-463): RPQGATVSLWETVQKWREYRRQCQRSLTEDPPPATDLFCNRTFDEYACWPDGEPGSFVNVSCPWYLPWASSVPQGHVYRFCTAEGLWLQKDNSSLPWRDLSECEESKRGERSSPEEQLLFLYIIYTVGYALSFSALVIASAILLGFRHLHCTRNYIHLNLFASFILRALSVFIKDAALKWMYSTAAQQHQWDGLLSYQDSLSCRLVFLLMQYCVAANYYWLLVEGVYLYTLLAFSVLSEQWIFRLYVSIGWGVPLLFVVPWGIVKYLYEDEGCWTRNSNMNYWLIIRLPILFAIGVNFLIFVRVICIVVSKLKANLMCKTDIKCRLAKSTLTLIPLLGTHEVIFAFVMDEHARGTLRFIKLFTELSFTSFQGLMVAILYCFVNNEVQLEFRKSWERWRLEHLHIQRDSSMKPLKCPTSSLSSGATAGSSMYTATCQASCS
Chain of human GCGR (P47871 26-477): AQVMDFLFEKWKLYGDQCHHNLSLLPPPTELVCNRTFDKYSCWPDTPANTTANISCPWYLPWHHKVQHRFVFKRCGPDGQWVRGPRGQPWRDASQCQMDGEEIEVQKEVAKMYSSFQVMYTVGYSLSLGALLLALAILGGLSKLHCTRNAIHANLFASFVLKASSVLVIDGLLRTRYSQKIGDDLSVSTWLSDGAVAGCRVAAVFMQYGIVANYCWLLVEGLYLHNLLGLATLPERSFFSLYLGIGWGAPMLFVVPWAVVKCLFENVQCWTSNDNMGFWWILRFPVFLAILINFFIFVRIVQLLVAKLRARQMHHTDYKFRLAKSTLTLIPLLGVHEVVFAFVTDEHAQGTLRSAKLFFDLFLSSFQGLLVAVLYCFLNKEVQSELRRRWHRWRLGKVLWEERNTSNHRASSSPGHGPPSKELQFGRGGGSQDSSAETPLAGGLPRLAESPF

Row | SMILES | EC50 ([1]; Table 3) [nM] | EC50 [2, 3] [nM] | EC50 [1, 4] [nM] | EC50 [2, 5] [nM]
1 | CC(C)C[C@H](NC(=O)[C@H](Cc1ccc(O)cc1)NC(=O)[C@H](CCCCN)NC(=O)[C@H](CO)NC(=O)[C@H](Cc1ccc(O)cc1)NC(=O)[C@H](CC(=O)O)NC(=O)[C@H](CO)NC(=O)[C@@H](NC(=O)[C@H](Cc1ccccc1)NC(=O)[C@@H](NC(=O)CNC(=O)[C@H](Cc1c[nH]cn1)NC(=O)[C@H](CO)NC(=O)[C@@H](N)Cc1ccc(O)cc1)[C@@H](C)O)[C@@H](C)O)C(=O)N[C@@H](CC(=O)O)C(=O)NC(C)(C)C(=O)N[C@@H](CCCCN)C(=O)N[C@@H](CCCNC(=N)N)C(=O)N[C@@H](C)C(=O)N[C@@H](CCC(N)=O)C(=O)N[C@@H](CCC(=O)O)C(=O)N[C@@H](Cc1ccccc1)C(=O)N[C@H](C(=O)NC(C)(C)C(=O)N[C@@H](Cc1c[nH]c2ccccc12)C(=O)N[C@@H](CC(C)C)C(=O)N[C@@H](CCC(=O)O)C(=O)N[C@@H](CC(=O)O)C(=O)N[C@@H](CCC(=O)O)C(=O)N1CCC[C@H]1C(=O)N[C@@H](CO)C(=O)N[C@@H](CO)C(=O)NCC(=O)N[C@@H](C)C(=O)N1CCC[C@H]1C(=O)N1CCC[C@H]1C(=O)N1CCC[C@H]1C(=O)N[C@@H](CO)C(=O)N[C@@H](CO)C(=O)O)C(C)C [Compound A25] (H-YSHGTFTSDYSKYLD[Aib]KRAQEFV[Aib]WLEDEPSSGAPPPSS-OH; N-terminus assumed) | 0.00501 | > 1 | – | –
2 | CC(C)C[C@H](NC(=O)[C@H](Cc1ccc(O)cc1)NC(=O)[C@H](CCCCN)NC(=O)[C@H](CO)NC(=O)[C@H](Cc1ccc(O)cc1)NC(=O)[C@H](CC(=O)O)NC(=O)[C@H](CO)NC(=O)[C@@H](NC(=O)[C@H](Cc1ccccc1)NC(=O)[C@@H](NC(=O)CNC(=O)[C@H](Cc1c[nH]cn1)NC(=O)[C@H](CO)NC(=O)[C@@H](N)Cc1ccc(O)cc1)[C@@H](C)O)[C@@H](C)O)C(=O)N[C@@H](CC(=O)O)C(=O)NC(C)(C)C(=O)N[C@@H](CCCCN)C(=O)N[C@@H](CCCNC(=N)N)C(=O)N[C@@H](C)C(=O)N[C@@H](CCC(N)=O)C(=O)N[C@@H](CCC(=O)O)C(=O)N[C@@H](Cc1ccccc1)C(=O)N[C@H](C(=O)NC(C)(C)C(=O)N[C@@H](Cc1c[nH]c2ccccc12)C(=O)N[C@@H](CC(C)C)C(=O)N[C@@H](CCC(=O)O)C(=O)N[C@@H](CC(=O)O)C(=O)N[C@@H](CCC(=O)O)C(=O)N[C@@H](CCCCN)C(=O)N[C@@H](CCCNC(=N)N)C(=O)N[C@@H](CC(N)=O)C(=O)N[C@@H](CCCCN)C(=O)N[C@@H](CC(N)=O)C(=O)N1CCC[C@H]1C(=O)N1CCC[C@H]1C(=O)N[C@@H](CO)C(=O)O)C(C)C [Compound A47] (H-YSHGTFTSDYSKYLD[Aib]KRAQEFV[Aib]WLEDEKRNKNPPS-OH; N-terminus assumed) | 0.00316 | > 1 | – | –
3 | CCCCCCCCCCCCCCCC(=O)N[C@@H](CCC(=O)NCCCC[C@H](NC(=O)[C@H](CC(=O)O)NC(=O)[C@H](CC(C)C)NC(=O)[C@H](Cc1ccc(O)cc1)NC(=O)[C@H](CCCCN)NC(=O)[C@H](CO)NC(=O)[C@H](Cc1ccc(O)cc1)NC(=O)[C@H](CC(=O)O)NC(=O)[C@H](CO)NC(=O)[C@@H](NC(=O)[C@H](Cc1ccccc1)NC(=O)[C@@H](NC(=O)CNC(=O)[C@H](Cc1c[nH]cn1)NC(=O)[C@H](CO)NC(=O)[C@@H](N)Cc1ccc(O)cc1)[C@@H](C)O)[C@@H](C)O)C(=O)N[C@@H](C)C(=O)N[C@@H](CCCNC(=N)N)C(=O)N[C@@H](C)C(=O)N[C@@H](CCC(N)=O)C(=O)N[C@@H](CCC(=O)O)C(=O)N[C@@H](Cc1ccccc1)C(=O)N[C@H](C(=O)N[C@@H](CCCCN)C(=O)N[C@@H](Cc1c[nH]c2ccccc12)C(=O)N[C@@H](CC(C)C)C(=O)N[C@@H](CCC(=O)O)C(=O)N[C@@H](CC(=O)O)C(=O)N[C@@H](CCC(=O)O)C(=O)N1CCC[C@H]1C(=O)N[C@@H](CO)C(=O)N[C@@H](CO)C(=O)NCC(=O)N[C@@H](C)C(=O)N1CCC[C@H]1C(=O)N1CCC[C@H]1C(=O)N1CCC[C@H]1C(=O)N[C@@H](CO)C(N)=O)C(C)C)C(=O)O [Compound B43] | – | – | 0.00794 | > 1000
4 | CC(C)C[C@H](NC(=O)[C@H](Cc1ccc(O)cc1)NC(=O)[C@H](CCCCN)NC(=O)[C@H](CO)NC(=O)[C@H](Cc1ccc(O)cc1)NC(=O)[C@H](CC(=O)O)NC(=O)[C@H](CO)NC(=O)[C@@H](NC(=O)[C@H](Cc1ccccc1)NC(=O)[C@@H](NC(=O)CNC(=O)[C@H](Cc1c[nH]cn1)NC(=O)[C@H](CO)NC(=O)[C@@H](N)Cc1ccc(O)cc1)[C@@H](C)O)[C@@H](C)O)C(=O)N[C@@H](CC(=O)O)C(=O)NC(C)(C)C(=O)N[C@@H](CCCCN)C(=O)N[C@@H](CCC(=O)O)C(=O)N[C@@H](C)C(=O)N[C@@H](CCC(N)=O)C(=O)N[C@@H](CCC(=O)O)C(=O)N[C@@H](Cc1ccccc1)C(=O)N[C@H](C(=O)NC(C)(C)C(=O)N[C@@H](Cc1c[nH]c2ccccc12)C(=O)N[C@@H](CC(C)C)C(=O)N[C@@H](CCC(=O)O)C(=O)N[C@@H](CC(=O)O)C(=O)N[C@@H](CCC(=O)O)C(=O)N1CCC[C@H]1C(=O)N[C@@H](CO)C(=O)N[C@@H](CO)C(=O)NCC(=O)N[C@@H](C)C(=O)N1CCC[C@H]1C(=O)N1CCC[C@H]1C(=O)N1CCC[C@H]1C(=O)N[C@@H](CO)C(=O)O)C(C)C [Compound A79] (H-YSHGTFTSDYSKYLD[Aib]KEAQEFV[Aib]WLEDEPSSGAPPPS-OH; N-terminus assumed) | 0.0631 | > 1 | – | –
5 | CC(C)C[C@H](NC(=O)[C@H](Cc1ccc(O)cc1)NC(=O)[C@H](CCCCN)NC(=O)[C@H](CO)NC(=O)[C@H](CCCCNC(=O)COCCOCCNC(=O)COCCOCCNC(=O)CC[C@H](NC(=O)CCCCCCCCCCCCCCCCC(=O)O)C(=O)O)NC(=O)[C@H](CC(=O)O)NC(=O)[C@H](CO)NC(=O)[C@@H](NC(=O)[C@H](Cc1ccccc1)NC(=O)[C@@H](NC(=O)CNC(=O)[C@H](Cc1c[nH]cn1)NC(=O)[C@H](CO)NC(=O)[C@@H](N)Cc1ccc(O)cc1)[C@@H](C)O)[C@@H](C)O)C(=O)N[C@@H](CC(=O)O)C(=O)NC(C)(C)C(=O)N[C@@H](CCCCN)C(=O)N[C@@H](Cc1ccc(O)cc1)C(=O)N[C@@H](C)C(=O)N[C@@H](CCC(N)=O)C(=O)N[C@@H](CCC(=O)O)C(=O)N[C@@H](Cc1ccccc1)C(=O)N[C@H](C(=O)NC(C)(C)C(=O)N[C@@H](Cc1c[nH]c2ccccc12)C(=O)N[C@@H](CC(C)C)C(=O)N[C@@H](CCC(=O)O)C(=O)N[C@@H](CC(=O)O)C(=O)N[C@@H](CCC(=O)O)C(=O)N1CCC[C@H]1C(=O)N[C@@H](CO)C(=O)N[C@@H](CO)C(=O)NCC(=O)N[C@@H](C)C(=O)N1CCC[C@H]1C(=O)N1CCC[C@H]1C(=O)N1CCC[C@H]1C(=O)N[C@@H](CO)C(=O)O)C(C)C [Compound B8] (H-YSHGTFTSDK([AEEA-AEEA-γGlu-C18 diacid])SKYLD[Aib]KYAQEFV[Aib]WLEDEPSSGAPPPS-OH) | – | – | 0.0251 | > 1000
6 | CC(C)C[C@H](NC(=O)[C@H](Cc1ccc(O)cc1)NC(=O)[C@H](CCCCN)NC(=O)[C@H](CO)NC(=O)[C@H](Cc1ccc(O)cc1)NC(=O)[C@H](CC(=O)O)NC(=O)[C@H](CO)NC(=O)[C@@H](NC(=O)[C@H](Cc1ccccc1)NC(=O)[C@@H](NC(=O)CNC(=O)[C@H](Cc1c[nH]cn1)NC(=O)[C@H](CO)NC(=O)[C@@H](N)Cc1ccc(O)cc1)[C@@H](C)O)[C@@H](C)O)C(=O)N[C@@H](CC(=O)O)C(=O)N[C@@H](CO)C(=O)N[C@@H](C)C(=O)N[C@@H](CCCNC(=N)N)C(=O)N[C@@H](C)C(=O)N[C@@H](CCC(N)=O)C(=O)N[C@@H](CCC(=O)O)C(=O)N[C@@H](Cc1ccccc1)C(=O)N[C@H](C(=O)N[C@@H](CCCCN)C(=O)N[C@@H](Cc1c[nH]c2ccccc12)C(=O)N[C@@H](CC(C)C)C(=O)N[C@@H](CCC(=O)O)C(=O)N[C@@H](CC(=O)O)C(=O)N[C@@H](CCC(=O)O)C(=O)N1CCC[C@H]1C(=O)N[C@@H](CCCCN)C(=O)N[C@@H](CO)C(=O)N[C@@H](CCCCN)C(=O)N[C@@H](CCC(=O)O)C(=O)N1CCC[C@H]1C(=O)N1CCC[C@H]1C(=O)N1CCC[C@H]1C(=O)N[C@@H](CO)C(=O)O)C(C)C [Compound A69] (H-YSHGTFTSDYSKYLDSARAQEFVKWLEDEPKSKEPPPS-OH; N-terminus assumed) | 0.00158 | > 1 | – | –
7 | CC(C)C[C@H](NC(=O)[C@H](Cc1ccc(O)cc1)NC(=O)[C@H](CCCCN)NC(=O)[C@H](CO)NC(=O)[C@H](Cc1ccc(O)cc1)NC(=O)[C@H](CC(=O)O)NC(=O)[C@H](CO)NC(=O)[C@@H](NC(=O)[C@H](Cc1ccccc1)NC(=O)[C@@H](NC(=O)CNC(=O)[C@H](CCC(N)=O)NC(=O)[C@H](CO)NC(=O)[C@@H](N)Cc1c[nH]c2ccccc12)[C@@H](C)O)[C@@H](C)O)C(=O)N[C@@H](CC(=O)O)C(=O)N[C@@H](CCCCNC(=O)COCCOCCNC(=O)COCCOCCNC(=O)CC[C@H](NC(=O)CCCCCCCCCCCCCCCCC(=O)O)C(=O)O)C(=O)N[C@@H](CCCCN)C(=O)N[C@@H](CCCNC(=N)N)C(=O)N[C@@H](C)C(=O)N[C@@H](CCC(N)=O)C(=O)N[C@@H](CCC(=O)O)C(=O)N[C@@H](Cc1ccccc1)C(=O)N[C@H](C(=O)NC(C)(C)C(=O)N[C@@H](Cc1c[nH]c2ccccc12)C(=O)N[C@@H](CC(C)C)C(=O)N[C@@H](CCC(=O)O)C(=O)N[C@@H](CC(=O)O)C(=O)N[C@@H](CCC(=O)O)C(=O)N1CCC[C@H]1C(=O)N[C@@H](CO)C(=O)N[C@@H](CO)C(=O)NCC(=O)N[C@@H](C)C(=O)N1CCC[C@H]1C(=O)N1CCC[C@H]1C(=O)N1CCC[C@H]1C(=O)N[C@@H](CO)C(=O)O)C(C)C [Compound B23] (H-WSQGTFTSDYSKYLDK([AEEA-AEEA-γGlu-C18 diacid])KRAQEFV[Aib]WLEDEPSSGAPPPS-OH) | – | – | 0.316 | 316
